Results reported in ChEMBL document CHEMBL4020723, “Indoles as therapeutics of interest in medicinal chemistry: Bird's eye view” (Eur J Med Chem, 2017).
In brackets after ≈: the same amount, converted by molar mass.

Legend:
[1] = tested on: Plasmodium falciparum; assay: Antiplasmodial activity against chloroquine-resistant Plasmodium falciparum W2 infected in human erythrocytes after 72 hrs by giemsa staining based microscopic analysis; format: functional, cell-based; settings: W2, 72 h
[2] = tested on: A549; assay: Cytotoxicity against human A549 cells; format: functional, cell-based
[3] = Cytotoxicity against human MDA-MB cells; format: functional, cell-based
[4] = tested on: HCT-8; assay: Cytotoxicity against human HCT8 cells; format: functional, cell-based
[5] = tested on: P388; assay: Cytotoxicity against mouse P388 cells; format: functional, cell-based
[6] = tested on: Human alphaherpesvirus 2; assay: Antiviral activity against Herpes simplex virus type 2 by plaque reduction assay; format: functional; settings: read-out: ID50 (the source's name)
[7] = tested on: Human alphaherpesvirus 1; assay: Antiviral activity against Herpes simplex virus type 1 by plaque reduction assay; format: functional; settings: read-out: ID50 (the source's name)
[8] = tested on: Human immunodeficiency virus 1; assay: Antiviral activity against HIV-1 assessed as inhibition of virus-induced syncytia formation; format: functional
[9] = tested on: Rattus norvegicus; assay: Antiinflammatory activity in rat assessed as inhibition of carrageenan-induced paw edema at 50 mg/kg, po administered 1 hr prior to carrageenan challenge measured 4 hrs post dose; format: functional
[10] = tested on: HeLa; assay: Cytotoxicity against human HeLa cells; format: functional, cell-based
[11] = tested on: Plasmodium falciparum; assay: Antimalarial activity against Plasmodium falciparum D6; format: functional
[12] = tested on: Mycobacterium; assay: Antibacterial activity against Mycobacterium; format: functional
[13] = tested on: Staphylococcus aureus; assay: Antibacterial activity against Staphylococcus aureus; format: functional
[14] = tested on: K562; assay: Cytotoxicity against human K562 cells assessed as reduction in cell viability after 72 hrs by MTT assay; format: functional, cell-based; settings: K562, 72 h
[15] = tested on: HL-60; assay: Cytotoxicity against human HL60 cells assessed as reduction in cell viability after 72 hrs by MTT assay; format: functional, cell-based; settings: HL-60, 72 h
[16] = molecular target: Protein kinase C beta type (Homo sapiens) (UniProt P05771); assay: Inhibition of PKCbeta (unknown origin)
[17] = molecular target: Protein kinase C alpha type (Homo sapiens) (UniProt P17252); assay: Inhibition of PKCalpha (unknown origin)
[18] = tested on: Staphylococcus haemolyticus; assay: Antibacterial activity against Staphylococcus haemolyticus; format: functional
[19] = tested on: Streptococcus pyogenes; assay: Antibacterial activity against Streptococcus pyogenes; format: functional
[20] = tested on: Enterococcus faecium; assay: Antibacterial activity against Enterococcus faecium; format: functional
[21] = tested on: Bacillus subtilis; assay: Antibacterial activity against Bacillus subtilis; format: functional
[22] = tested on: Enterococcus faecalis; assay: Antibacterial activity against Enterococcus faecalis; format: functional
[23] = tested on: Plasmodium falciparum; assay: Antiplasmodial activity against chloroquine-resistant Plasmodium falciparum K1 after 24 hrs by liquid scintillation counting analysis; format: functional; settings: K1, 24 h
[24] = tested on: Plasmodium falciparum; assay: Antiplasmodial activity against chloroquine-resistant Plasmodium falciparum W2 after 24 hrs by liquid scintillation counting analysis; format: functional; settings: W2, 24 h
[25] = Inhibition of HDAC (unknown origin); parameters: species or system Homo sapiens
[26] = tested on: KB; assay: Cytotoxicity against human KB cells; format: functional, cell-based
[27] = tested on: P388; assay: Cytotoxicity against mouse doxorubicin-resistant P388 cells; format: functional, cell-based
[28] = Cytotoxicity against human NSCLC-N6 cells; format: functional, cell-based
[29] = tested on: HT-29; assay: Cytotoxicity against human HT-29 cells; format: functional, cell-based
[30] = tested on: Helicobacter pylori; assay: Antibacterial activity against Helicobacter pylori; format: functional

Sequence of Protein kinase C beta type (Homo sapiens) (P05771 2-671 limits assumed): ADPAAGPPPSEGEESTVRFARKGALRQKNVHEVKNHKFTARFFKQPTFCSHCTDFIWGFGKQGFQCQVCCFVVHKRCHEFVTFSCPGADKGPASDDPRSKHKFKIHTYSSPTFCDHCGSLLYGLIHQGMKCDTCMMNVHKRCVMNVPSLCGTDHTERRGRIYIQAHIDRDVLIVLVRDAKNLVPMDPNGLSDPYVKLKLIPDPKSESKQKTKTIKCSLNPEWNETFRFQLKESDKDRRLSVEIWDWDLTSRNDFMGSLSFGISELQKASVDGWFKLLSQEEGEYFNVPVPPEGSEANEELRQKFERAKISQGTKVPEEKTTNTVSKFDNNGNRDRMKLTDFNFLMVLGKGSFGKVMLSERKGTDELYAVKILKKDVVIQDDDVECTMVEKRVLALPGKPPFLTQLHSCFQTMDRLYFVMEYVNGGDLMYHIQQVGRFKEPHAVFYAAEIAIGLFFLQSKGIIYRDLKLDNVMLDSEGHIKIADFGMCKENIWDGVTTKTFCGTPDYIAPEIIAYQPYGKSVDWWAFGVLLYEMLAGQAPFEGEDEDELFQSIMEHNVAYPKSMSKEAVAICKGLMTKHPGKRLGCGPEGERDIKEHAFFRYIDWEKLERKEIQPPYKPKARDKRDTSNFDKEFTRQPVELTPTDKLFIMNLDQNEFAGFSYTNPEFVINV

With `C=C1c2[nH]c3ccccc3c2C2C(CC)C1CCN2C` (stereo not drawn) as the compound, how does the IC50 [1] read?
The IC50 was less than 1 µg/mL.

With `CN1C[C@H](c2c[nH]c3c(Br)c(Br)cc(O)c23)NC[C@H]1c1c[nH]c2cc(Br)ccc12` as the compound, how does the IC50 [2] read?
The IC50 was 1 to 10 µg/mL (≈ 1.71 to 17.1 µM).

What about the IC50 [3] of the same compound?
The IC50 was 1 to 10 µg/mL (≈ 1.71 to 17.1 µM).

And the IC50 [4]?
Its IC50 is 1 to 10 µg/mL (≈ 1.71 to 17.1 µM).

And the IC50 [5]?
Its IC50 is 15 µg/mL (≈ 25.7 µM).

For `CC(C)CC(=O)[C@@H](O)Cc1c[nH]c2ccccc12`, which IC50 [6] is on record?
Its IC50 is 1500 µg/mL (≈ 6110 µM).

What about the IC50 [7] of the same compound?
Its IC50 is 1500 µg/mL (≈ 6110 µM).

With `COc1ccc2c(c1)N=CN1CCc3c([nH]c4ccccc34)C3=NCC[C@@]321` as the compound, how does the EC50 [8] read?
Its EC50 is 0.95 µg/mL (≈ 2.67 µM).

With `O=C(O)c1ccc(C(=O)N/N=C/c2c(-c3cccs3)[nH]c3ccccc23)cc1` as the compound, how does the inhibition in vivo at 50 mg/kg [9] read?
Its inhibition in vivo at 50 mg/kg is 55.3%.

Which IC50 [10] does the source give for `COC(=O)[C@@]1(C)Nc2c(O)cc3c(c2C1=O)C[C@@H](Br)CN3C(=O)c1cc2cc(OC)c(OC)c(OC)c2[nH]1` here?
The IC50 was 0.001 to 1 nM.

For `Oc1cccc2c1[nH]c1c(C3=C[C@@]4(O)CC/C=C\CCCCN5CC[C@@H]3[C@@]3(C[C@@H]6/C=C\CCCCN6[C@H]34)C5)nccc12`, which MIC [11] is on record?
Its MIC is 6 µg/mL (≈ 10.6 µM).

What does the source list for `O=c1ccc2nccc3c4cccc(O)c4n1c23`?
MIC [12]: 2 to 32 µg/mL (≈ 8.47 to 135 µM); MIC [13]: 8 to 64 µg/mL (≈ 33.9 to 271 µM)

With `COC(=O)[C@@]1(C)Nc2c(O)cc3c(c2C1=O)[C@@H](CBr)CN3C(=O)c1cc2cc(OC)c(OC)c(OC)c2[nH]1` as the compound, how does the IC50 [10] read?
The IC50 was 0.001 to 1 nM.

Which results are given for `CC(C)=CCc1cccc2c1N[C@@H]1N3C(=O)[C@H](Cc4c[nH]c5c(CC=C(C)C)cccc45)NC(=O)[C@@H]3C[C@]21O`?
IC50 [14]: 22400 nM; IC50 [15]: 780 nM

For `COC(=O)[C@@]1(C)NC2=C(C1=O)[C@@]13C[C@H]1CN(C(=O)c1cc4cc(OC)c(OC)c(OC)c4[nH]1)C3=CC2=O`, which IC50 [10] is on record?
Its IC50 is 0.001 to 1 nM.

Which MIC [11] does the source give for `CN1C(=N)N(C)/C(=C/c2c[nH]c3cc(Br)ccc23)C1=O` here?
Its MIC is 0.34 µg/mL (≈ 1.02 µM).

For `[O-][n+]1ccc2c([nH]c3ccccc32)c1C1=C[C@@]2(O)CC/C=C\CCCCN3CC[C@@H]1[C@]1(C[C@@H]4/C=C\CCCCN4[C@H]12)C3`, which MIC [11] is on record?
Its MIC is 11 µg/mL (≈ 19.5 µM).

Which INH [16] does the source give for `N#CCCn1c2ccccc2c2c3c(c4c5ccccc5[nH]c4c21)C(=O)NC3` here?
Its INH is 6.2 nM.

And the INH [17]?
The INH was 2.3 nM.

With `CN[C@@H](CC(C)C)C(=O)NCCc1c(Br)n(C)c2cc(Br)c(Br)cc12` [ALTEMATAMIDE A] as the compound, how does the MIC [18] read?
Its MIC is 4 to 32 µg/mL (≈ 7.43 to 59.5 µM).

And the MIC [19]?
Its MIC is 4 to 32 µg/mL (≈ 7.43 to 59.5 µM).

What about the MIC [20] of the same compound?
Its MIC is 4 to 32 µg/mL (≈ 7.43 to 59.5 µM).

What about the MIC [21] of the same compound?
Its MIC is 4 to 32 µg/mL (≈ 7.43 to 59.5 µM).

And the MIC [22]?
Its MIC is 4 to 32 µg/mL (≈ 7.43 to 59.5 µM).

And the MIC [13]?
Its MIC is 4 to 32 µg/mL (≈ 7.43 to 59.5 µM).

For `CN[C@@H](CC(C)C)C(=O)NCCc1c(Br)[nH]c2cc(Br)c(Br)cc12` [ALTEMATAMIDE B], which MIC [18] is on record?
The MIC was 4 to 32 µg/mL (≈ 7.63 to 61.1 µM).

What about the MIC [19] of the same compound?
The MIC was 4 to 32 µg/mL (≈ 7.63 to 61.1 µM).

What about the MIC [20] of the same compound?
Its MIC is 4 to 32 µg/mL (≈ 7.63 to 61.1 µM).

And the MIC [21]?
Its MIC is 4 to 32 µg/mL (≈ 7.63 to 61.1 µM).

And the MIC [22]?
The MIC was 4 to 32 µg/mL (≈ 7.63 to 61.1 µM).

And the MIC [13]?
Its MIC is 4 to 32 µg/mL (≈ 7.63 to 61.1 µM).

Which MIC [18] does the source give for `CN[C@@H](CC(C)C)C(=O)NCCc1c(Br)[nH]c2ccc(Br)cc12` [ALTEMATAMIDE C] here?
Its MIC is 4 to 32 µg/mL (≈ 8.98 to 71.9 µM).

And the MIC [19]?
Its MIC is 4 to 32 µg/mL (≈ 8.98 to 71.9 µM).

And the MIC [20]?
The MIC was 4 to 32 µg/mL (≈ 8.98 to 71.9 µM).

And the MIC [21]?
The MIC was 4 to 32 µg/mL (≈ 8.98 to 71.9 µM).

And the MIC [22]?
Its MIC is 4 to 32 µg/mL (≈ 8.98 to 71.9 µM).

What about the MIC [13] of the same compound?
The MIC was 4 to 32 µg/mL (≈ 8.98 to 71.9 µM).

Which results are given for `O=c1ccc2nccc3c4ccccc4n1c23` [CANTHIN-6-ONE]?
MIC [12]: 2 to 32 µg/mL (≈ 9.08 to 145 µM); MIC [13]: 8 to 64 µg/mL (≈ 36.3 to 291 µM)

With `C[n+]1c2ccccc2cc2[n-]c3ccccc3c21.Cl` [CRYPTOLEPINE HYDROCHLORIDE] as the compound, how does the IC50 [23] read?
Its IC50 is 0.027 to 0.063 µg/mL.

And the IC50 [24]?
The IC50 was 0.027 to 0.063 µg/mL.

Which results are given for `C[n+]1c2ccccc2cc2[n-]c3ccccc3c21` [CRYPTOLEPINE]?
IC50 [23]: 0.027 to 0.063 µg/mL (≈ 0.116 to 0.271 µM); IC50 [24]: 0.027 to 0.063 µg/mL (≈ 0.116 to 0.271 µM)

For `O=C(/C=C/c1ccc(CN(CCO)CCc2c[nH]c3ccccc23)cc1)NO` [DACINOSTAT], which IC50 [25] is on record?
Its IC50 is 32 nM.

Which IC50 [26] does the source give for `NCCc1c(C(CN)c2c[nH]c3cc(Br)ccc23)[nH]c2cc(C(CN)c3c[nH]c4cc(Br)ccc34)c(O)cc12` (stereo not drawn) [GELLIUSINE A] here?
The IC50 was 10 to 20 µg/mL (≈ 15.4 to 30.7 µM).

What about the IC50 [27] of the same compound?
Its IC50 is 10 to 20 µg/mL (≈ 15.4 to 30.7 µM).

And the IC50 [28]?
Its IC50 is 10 to 20 µg/mL (≈ 15.4 to 30.7 µM).

What about the IC50 [5] of the same compound?
Its IC50 is 10 to 20 µg/mL (≈ 15.4 to 30.7 µM).

What about the IC50 [29] of the same compound?
The IC50 was 10 to 20 µg/mL (≈ 15.4 to 30.7 µM).

Which IC50 [23] does the source give for `Cn1c2c3ccccc3nc-2c(O)c2ccccc21` [HYDROXYCRYPTOLEPINE] here?
Its IC50 is 0.027 to 0.063 µg/mL (≈ 0.109 to 0.254 µM).

And the IC50 [24]?
The IC50 was 0.027 to 0.063 µg/mL (≈ 0.109 to 0.254 µM).

Which results are given for `CNC1=NC(=O)[C@H]([C@H](C)c2c[nH]c3ccccc23)O1` [INDOMYCIN]?
MIC [30]: 0.016 µg/mL (≈ 0.0622 µM); MIC [13]: 0.5 µg/mL (≈ 1.94 µM)

With `O[C@]12C=C(c3nccc4c3[nH]c3ccccc34)[C@@H]3CCN(CCCC/C=C\CC1)C[C@@]31C[C@@H]3/C=C\CCCCN3[C@H]12` [MANZAMINE A] as the compound, how does the MIC [11] read?
The MIC was 4.5 µg/mL (≈ 8.2 µM).

With `Cn1c2nc3ccccc3c-2cc2ccccc21` [NEOCRYPTOLEPINE] as the compound, how does the IC50 [23] read?
The IC50 was 0.027 to 0.063 µg/mL (≈ 0.116 to 0.271 µM).

And the IC50 [24]?
Its IC50 is 0.027 to 0.063 µg/mL (≈ 0.116 to 0.271 µM).
